In US6465491B2, “6-phenylpyridyl-2-amine derivatives” (Pfizer Inc., priority 1996, dated 2002):
Structures can show the parent of a compound that is named as a salt.

SMILES	melting point
Nc1cccc(-c2ccc(CCCN3CCN(CCc4ccccc4)CC3)cc2)n1 (as salt: hydrochloride) [Example 129, 6-{4-[3-(4-Phenethyl-piperazin-1-yl)-propyl]-phenyl}-pyridin-2-ylamine]	125 to 140 °C
Nc1cccc(-c2ccc(CCN3CCN(C(c4ccccc4)c4ccccc4)CC3)cc2)n1 (as salt: hydrochloride) [Example 89, 6-{4-[2-(4-Benzhydryl-piperazin-1-yl)-ethyl]-phenyl}-pyridin-2-ylamine]	170 °C (dec.)
COc1ccc(NC(=O)N2CCN(CCc3ccc(-c4cccc(N)n4)cc3)CC2)cc1 [Example 31, 4-{2-[4-(6-Amino-pyridin-2-yl)-phenyl]-ethyl}-piperazine-1-carboxylic acid (4-methoxy-phenyl)-amide]	182 to 184 °C
Nc1cccc(-c2ccc(CCN3CCN(C(=O)c4ccccc4)CC3)cc2)n1 [Example 25, (4-{2-[4-(6-Amino-pyridin-2-yl)-phenyl]-ethyl}-piperazin-1-yl)-phenyl-methanone]	125 to 127 °C
Nc1cccc(-c2ccc(CCN3Cc4ccccc4CC3C(=O)O)cc2)n1 (stereo not drawn) (as salt: hydrochloride) [Example 28, 2-{2-[4-(6-Amino-pyridin-2-yl)-phenyl]ethyl}-1,2,3,4-tetrahydro-isoquinoline-3-carboxylic acid]	110 °C (dec.)
Nc1cccc(-c2ccc(CCN3CCC(c4ccccc4)C3)cc2)n1 (stereo not drawn) (as salt: hydrochloride) [Example 26, 6-{4-[2-(3-Phenyl-pyrrolidin-1-yl)-ethyl]-phenyl}-pyridin-2-ylamine]	100 °C (dec.)
Nc1cccc(-c2ccc(CCN3CC4CCC(C3)C4N)cc2)n1 (stereo not drawn) (as salt: hydrochloride)	235 °C (dec.)
COCC(=O)N1CCN(CCc2ccc(-c3cccc(N)n3)cc2)CC1 [Example 11, 1-(4-{2-[4-(6-Amino-pyridin-2-yl)-phenyl]-ethyl}-piperazin-1-yl)-2-methoxy-ethanone]	148 to 150 °C
Nc1cccc(-c2ccc(CCN3CCN(C4CCc5ccccc5C4)CC3)cc2)n1 (stereo not drawn) (as salt: hydrochloride) [Example 55, 6-(4-{2-[4-(1,2,3,4-Tetrahydro-naphthalen-2-yl)-piperazin-1-yl]-ethyl}-phenyl)-pyridin-2-ylamine]	> 220 °C
Nc1cccc(-c2ccc(CCN3CCN(C(=O)C4CCCC4)CC3)cc2)n1 [Example 13, (4-{2-[4-(6-Amino-pyridin-2-yl)-phenyl]-ethyl}-piperazin-1-yl)-cyclopentyl-methanone]	185 to 187 °C
Nc1cccc(-c2ccc(CCN3CCC(C(c4ccccc4)c4ccccc4)CC3)cc2)n1 (as salt: hydrochloride) [Example 90, 6-{4-[2-(4-Benzhydryl-piperidin-1-yl)-ethyl]-phenyl}-pyridin-2-ylamine]	175 °C (dec.)
Nc1cccc(-c2ccc(CCNC3CC4COCC(C3)N4)cc2)n1 (stereo not drawn) (as salt: hydrochloride) [107]	170 °C (dec.)
Nc1cccc(-c2ccc(CCNC3CC4CCC(C3)N4)cc2)n1 (stereo not drawn) (as salt: hydrochloride)	170 °C (dec.)
Nc1cccc(-c2ccc(CCN3CCC(NC(=O)Cc4ccc(F)cc4)CC3)cc2)n1 (as salt: hydrochloride) [Example 65, N-(1-{2-[4-(6-Amino-pyridin-2-yl)-phenyl]-ethyl}-piperidin-4-yl)-2-(4-fluoro-phenyl)-acetamide]	170 °C (dec.)
Nc1cccc(-c2ccc(CCN3CCN(C(=O)Cc4ccc(Cl)cc4)CC3)cc2)n1 (as salt: hydrochloride)	205 °C (dec.)
Nc1cccc(-c2ccc(CN3CCCCC3)cc2)n1 (as salt: hydrochloride) [Example 138, 6-(4-Piperidin-1-ylmethyl-phenyl)-pyridin-2-ylamine]	> 250 °C
Nc1cccc(-c2ccc(CCNC3CC4CCC(C3)N4Cc3ccc(Cl)cc3)cc2)n1 (stereo not drawn) (as salt: hydrochloride)	198 °C (dec.)
Nc1cccc(-c2ccc(CCNC3CCN(C(=O)Nc4ccccc4)C3)cc2)n1 (stereo not drawn) (as salt: hydrochloride) [Example 80, 3-{2-[4-(6-Amino-pyridin-2-yl)-phenyl]-ethylamino}-pyrrolidine-1-carboxylic acid phenylamide]	130 °C (dec.)
Nc1cccc(-c2ccc(CCN3CCN(C(=O)Cc4ccccc4)CC3)cc2)n1	135 to 137 °C
Nc1cccc(-c2ccc(CCN3CCC(NC(=O)NCc4ccccc4)C3)cc2)n1 (stereo not drawn) (as salt: hydrochloride) [Example 73, 1-(1-{2-[4-(6-Amino-pyridin-2yl)-phenyl]-ethyl}-pyrrolidin-3-yl)-3-benzyl-urea]	90 °C (dec.)
Nc1cccc(-c2ccc(CCNC34CC5CC(CC(C5)C3)C4)cc2)n1 (as salt: hydrochloride) [Example 115, 6-{4-[2-(Adamantan-1-ylamino)-ethyl]-phenyl}-pyridin-2-ylamine]	200 to 220 °C (dec.)

SMILES	melting point
CN(Cc1ccc(-c2cccc(N)n2)cc1)C1CCCCC1 (as salt: hydrochloride) [Example 136, 6-{4-[(Cyclohexyl-methyl-amino)-methyl]-phenyl}-pyridin-2-ylamine]	> 250 °C
Nc1cccc(-c2cccc(CCN3CCN(CCc4ccccc4)CC3)c2)n1 (as salt: hydrochloride) [Example 130, 6-{3-[2-(4-Phenethyl-piperazin-1-yl)-ethyl]-phenyl}-pyridin-2-ylamine]	120 °C (dec.)
CN1CCN(CCc2ccc(-c3cccc(N)n3)cc2)CC1 (as salt: hydrochloride) [Example 109, 6-{4-[2-(4-Methyl-piperazin-1-yl)-ethyl]-phenyl}-pyridin-2-ylamine]	170 °C (dec.)
Nc1cccc(-c2ccc(CCNC3CCc4ccccc4C3)cc2)n1 (stereo not drawn) (as salt: hydrochloride) [Example 18, 6-{4-[2-(1,2,3,4-Tetrahydro-naphthalen-2-ylamino)-ethyl]-phenyl}-pyridin-2-ylamine]	320 to 322 °C
Nc1cccc(-c2ccc(CCN(Cc3ccncc3)Cc3ccncc3)cc2)n1 (as salt: hydrochloride) [Example 120, 6-{4-[2-(Bis-pyridin-4-ylmethyl-amino)-ethyl]-phenyl}-pyridin-2-ylamine]	150 to 163 °C (dec.)
Nc1cccc(-c2ccc(CCN3C4CCC3CC(N)C4)cc2)n1 (stereo not drawn) (as salt: hydrochloride)	> 300 °C
Nc1cccc(-c2ccc(CCN3CCN(C(=O)C(N)Cc4ccccc4)CC3)cc2)n1 (stereo not drawn) (as salt: hydrochloride) [Example 61, 2-Amino-1-(4-{2-[4-(6-amino-pyridin-2-yl)-phenyl]-ethyl}-piperazin-1-yl)-3-phenyl-propan-1-one]	230 °C (dec.)
Nc1cccc(-c2ccc(CCN3CCC(N)(C(=O)NCCc4ccccc4)CC3)cc2)n1 (as salt: hydrochloride) [Example 79, 4-Amino-1-{2-[4-(6-amino-pyridin-2-yl)-phenyl]-ethyl}-piperidine-4-carboxylic acid phenethyl-amide]	215 to 219 °C (dec.)
Nc1cccc(-c2ccc(CNC3Cc4ccccc4C3)cc2)n1 (as salt: hydrochloride) [Example 139, 6-[4-(Indan-2-ylaminomethyl)-phenyl]-pyridin-2-ylamine]	185 to 187 °C
Nc1cccc(-c2ccc(CCN3CCC(NC(=O)Cc4ccc(F)cc4)C3)cc2)n1 (stereo not drawn) [Example 56, N-(1-{2-[4-(6-Amino-pyridin-2-yl)-phenyl]-ethyl}-pyrrolidin-3-yl)-2-(4-fluoro-phenyl)-acetamide]	90 °C (dec.)
Nc1cccc(-c2ccc(CCNCCCCCc3ccccc3)cc2)n1 [Example 126, 6-{4-[2-(5-Phenyl-pentylamino)-ethyl]-phenyl}-pyridin-2-ylamine]	60 to 70 °C
CC(Cc1ccccc1)N1CCN(CCc2ccc(-c3cccc(N)n3)cc2)CC1 (stereo not drawn) (as salt: hydrochloride) [Example 54, 6-(4-{2-[4-(1-Methyl-2-phenyl-ethyl)-piperazin-1-yl]-ethyl}-phenyl)-pyridin-2-ylamine]	252 to 256 °C
Nc1cccc(-c2ccc(CCNC3CC4COCC(C3)N4)cc2)n1 (stereo not drawn) (as salt: hydrochloride) [104]	100 °C (dec.)
Nc1cccc(-c2ccc(CCN3CCN(C(=O)NCc4ccccc4)CC3)cc2)n1 [Example 47, 4-{2-[4-(6-Amino-pyridin-2-yl)-phenyl]-ethyl}-piperazine-1-carboxylic acid benzylamide]	172 to 181 °C
Nc1cccc(-c2ccc(CCCNC3CCc4ccccc4C3)cc2)n1 (stereo not drawn) (as salt: hydrochloride) [Example 127, 6-{4-[3-(1,2,3,4-Tetrahydro-naphthalen-2-ylamino)-propyl]-phenyl}-pyridin-2-ylamine]	120 to 130 °C
Nc1cccc(-c2ccc(CCN3CCC4(CC3)NC(=O)N(Cc3ccccc3)C4=O)cc2)n1 (as salt: hydrochloride) [Example 43, 8-{2-[4-(6-Amino-pyridin-2-yl)-phenyl]-ethyl}-3-benzyl-1,3,8-triaza-spiro[4.5]decane-2,4-dione]	190 °C (dec.)
Nc1cccc(-c2ccc(CCN3CCN(CCc4ccc(F)cc4)CC3)cc2)n1 [Example 53, 6-[4-(2-{4-[2-(4-Fluoro-phenyl)-ethyl]-piperazin-1-yl}-ethyl)-phenyl]-pyridin-2-ylamine]	165 to 167 °C
Nc1cccc(-c2ccc(CCN3CCN(C(=O)Oc4ccccc4)CC3)cc2)n1	102 to 104 °C
Cc1ccc(NC(=O)N2CCN(CCc3ccc(-c4cccc(N)n4)cc3)CC2)cc1 [Example 30, 4-{2-[4-(6-Amino-pyridin-2-yl)-phenyl]-ethyl}-piperazine-1-carboxylic acid p-tolyl-amide]	160 to 162 °C
Nc1cccc(-c2ccc(CCN3CCN(CCCc4ccccc4)CC3)cc2)n1 (as salt: hydrochloride) [Example 40, 6-(4-{2-[4-(3-Phenyl-propyl)-piperazin-1-yl]-ethyl}-phenyl)-pyridin-2-ylamine]	258 to 264 °C
Nc1cccc(-c2ccc(CN3CC4C(N)C4C3)cc2)n1 (stereo not drawn) (as salt: hydrochloride)	189 to 192 °C (dec.)
